Experimental data published in patent US20130280279A1, “PHARMACEUTICAL COMPOSITION OF A COMPLEX OF AN ANTI-DIG ANTIBODY AND DIGOXIGENIN THAT IS CONJUGATED TO A PEPTIDE” (HOFFMANN-LA ROCHE INC., priority 2011, published 2013).

Tests used:
[1] = excitation and emission spectra of Cy5 derivatives; assay type: physicochemical
Excerpt: To evaluate whether digoxigenation of Cy5 alters its fluorescence features, we compared the excitation and emission spectra of Cy5 and compared it with the spectra of the newly generated Dig-Cy5 and with Dig-Cy5 within a complex with bispecific antibodies.

[2] = serum levels of Dig-peptide after i.v. application, Western Blot; assay type: in vivo, mice (strain NRMI)
Procedure: To generate Dig-Cy5 complexes, 886.1 nmol of lyophilized DIG-Cy5 were added to 446.4 nmol anti-DIG-Antibody in 20 mM Histidin/140 mM NaCl pH 6.0 in 4 portions within 1 h at RT, slowly shaking. After the addition of the last portion the sample was incubated for a total of 2 h. In case of the DIG-PYY complexes, 691.7 nmol of lyophilized DIG-PYY were added to 364 nmol anti-DIG-Antibody in 20 mM Histidin/140 mM NaCl pH 6.0 and treated equally as the DIG-Cy5 complexes. The samples were applied to a Superdex 200 HiLoad 16/60 prep grade size exclusion column with 20 mM Histidin/140 mM NaCl pH6.0 as mobile phase. Fractions containing the complex were pooled and concentrated to 19.4 mg/ml (DIG-Cy5 complex) and 19.9 mg/ml (DIG-PYY complex) with a centrifugal filtration device (Vivaspin 20, 30 kDa MWCO, GE Healthcare). The protein concentration of the DIG-Cy5 containing sample was determined by the formula 4A280−(A649×CF))×dilution factor)/ε. CF is the correction factor A280nm/A649nm which was determined as 0.008. Loading of the antibody with DIG-Cy5 was calculated as 1.2 moles of DIG-Cy5 per mole antibody with the formula: (A649nm/(εCy5×protein concentration M))×dilution factor. […] All samples were filtered with a PVDF syringe filter (0.22 μm pore size) under sterile conditions.
To analyze the influence on PK parameters of antibody-complexation of the digoxigenated peptide, 32.1 nmol of the peptide DIG-moPYY, or of the corresponding antibody complexated peptide in 20 mM Histidin/140 mM NaCl pH 6.0 were applied to 2 female mice (strain NRMI) for each substance. […] About 0.1 ml blood samples were collected after the following time points: 0.08 h, 2 h and 24 h for Mouse 1 and 0.08 h, 4 h 24 h for Mouse 2. Serum samples of at least 40 μl were obtained after 1 h at RT by centrifugation (9300×g, 3 min, 4° C.). Serum samples were stored at −80° C. […] The reason for that was that we had no direct means to detect the peptide in serum samples. Therefore, we devised a Western-Blot related assay to detect digoxigenated peptide in serum. In a first step, the serum samples were separated on reducing SDS-PAGE. Because sample preparation for that included exposure of the serum to high concentrations of SDS and reducing agents, Dig-peptides can become released from the (completely denatured/unfolded)<Dig> IgG. To mediate the release of peptide from the antibody complex and separate them by SDS-PAGE, 2 μl of each serum sample was diluted in 18 μl 20 mM Histidin/140 mM NaCl pH 6.0, mixed with 6.7 μl of 4×LDS sample buffer and 3 μl of 10× sample reducing agent (NuPAGE, Invitrogen) for 5 min at 95° C. […] Digoxigenated peptides were subsequently detected on the membrane with anti-digoxygenin antibodies. […] Chemiluminescence was detected with the LumiImager F 1 (Roche) with an exposure time of 20 min. […]

[3] = molecular target: T1, NPY2 receptor (Homo sapiens, UniProt P49146); assay: cAMP assay: inhibition of Forskolin stimulated cAMP accumulation in HEK293/hNPY2R; assay type: cell-based
T1 construct: expressed in transfected cells; host or cells: HEK293/hNPY2R (grown under G418 selection)
T1 sequence (P49146 1-381): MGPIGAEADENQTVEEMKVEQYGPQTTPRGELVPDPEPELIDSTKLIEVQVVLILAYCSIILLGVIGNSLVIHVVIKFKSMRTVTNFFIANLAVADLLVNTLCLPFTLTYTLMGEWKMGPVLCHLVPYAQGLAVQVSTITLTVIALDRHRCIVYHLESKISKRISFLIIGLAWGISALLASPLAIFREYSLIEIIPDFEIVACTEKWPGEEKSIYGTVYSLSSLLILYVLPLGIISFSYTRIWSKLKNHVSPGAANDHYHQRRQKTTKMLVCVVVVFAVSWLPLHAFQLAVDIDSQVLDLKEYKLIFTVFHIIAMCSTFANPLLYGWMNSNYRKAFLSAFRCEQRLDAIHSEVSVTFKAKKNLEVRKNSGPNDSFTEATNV
Procedure: To perform the assay, on the first day, medium was discarded, and the monolayer cells were washed with 10 mL PBS per flask (T225). […] The flask was gently tapped and the cell suspension was pooled. Each flask was rinsed with 10 mL plating medium and centrifuged at 1000 rpm for 5 min. The suspension was pooled and counted. […] The plates were incubated at 37° C. overnight. […] The media and reagents were allowed to come to room temperature. […] The cell medium was tapped off with a gentle inversion of the cell plate on a paper towel. 50 μL of stimulation medium was placed per well (each concentration done in four replicates). The plates were incubated at room temperature for 30 min, and the cells were checked under a microscope for toxicity. After 30 min of treatment, the stimulation media was discarded and 50 μL/well of Assay Lysis Buffer (provided in the Tropix kit) was added. […] 20 μL of the lysate was transferred from stimulation plates into the pre-coated antibody plates (384-well) from the Tropix kit. […] The plates were incubated at room temperature while shaking for 1 hour. […] The plates were tapped to dry. […] Signal for 1 sec/well in a Luminometer. (VICTOR-V) was measured.

[4] = system: diet-induced obese (DIO) mice; assay: food intake in DIO (diet-induced-obesity) model; assay type: in vivo, C57Bl/6 mice; conditions: moPYY 11.05 μMol/kg, antibody-complexed DIG-moPYY 0.62 μMol/kg, up to 96 h post-dosing
Procedure: To determine the effect of NPY2-receptor agonists on food intake in these experiments we applied uncomplexed PYY-derived peptides and antibody complexed peptides to animals (adult male C57Bl/6 mice) in a DIO (diet-induced-obesity) model. The experiments were conducted on adult male C57Bl/6 mice obtained from Jackson laboratories. The mice were placed on a high fat diet (HFD; 60% of dietary kcal as fat, BioServe F3282) for over 20 weeks to induce obesity. The diet-induced obese (DIO) mice were sorted by body weight and 24 h food intake, and housed individually in standard caging at 22° C. in a reversed 12-h light/12-h dark cycle, and were acclimated to these conditions for at least 6 days before start of the experiment. Food (HFD) and water were provided ad libitum throughout the study. Ab-PYY3-37 fusion proteins and the vehicle controls were injected at the beginning of the dark cycle and food intake measured at various time intervals up to 96 h post-dosing (N=6-8 mice/group). Uncomplexed peptide moPYY was applied at concentration of 11.05 μMol/kg. Antibody-complexed DIG-moPYY was applied at a concentration of 0.62 μMol/kg. Thus, the injected molar concentration of the antibody complexed peptide was more than 17-fold lower than that of the uncomplexed peptide. […]

SMILES: CCN1/C(=C/C=C/C=C/C2=[N+](CCCCCC(=O)O)c3ccc(S(=O)(=O)O)cc3C2(C)C)C(C)(C)c2cc(S(=O)(=O)[O-])ccc21 [Cy5]
- Emission maximum [1]: 680 nm
- Excitation maximum [1]: 652 nm

SMILES: CC[C@H](C)[C@H](NC(C)=O)C(=O)N[C@@H](CCCCNC(=O)CCOCCOCCOCCNC(=O)CO[C@H]1CC[C@@]2(C)[C@H](CC[C@@H]3[C@@H]2C[C@@H](O)[C@]2(C)[C@@H](C4=CC(=O)OC4)CC[C@]32O)C1)C(=O)N1CCN(c2ccc3ncn(CC(=O)N[C@@H](CCCNC(=N)N)C(=O)N[C@@H](Cc4c[nH]cn4)C(=O)N[C@@H](Cc4ccc(O)cc4)C(=O)N[C@@H](CC(C)C)C(=O)N[C@@H](CC(N)=O)C(=O)N[C@@H](Cc4c[nH]c5ccccc45)C(=O)N[C@H](C(=O)N[C@H](C(=O)N[C@@H](CCCNC(=N)N)C(=O)N[C@@H](CCC(N)=O)C(=O)N(C)[C@@H](CCCNC(=N)N)C(=O)N[C@@H](Cc4ccc(O)cc4)C(N)=O)[C@@H](C)O)C(C)C)c(=O)c3c2)CC1 [DIG-moPYY]
- Dig-peptide signal in serum (Western Blot, in words) ([2]; 5 min after administration): only in trace amounts
- Dig-peptide signal in serum (Western Blot, in words) ([2]; later time points up to 24 hrs after administration): no defined peptide band are detectable
- IC50 [3]: 0.42 nM

SMILES: CC[C@H](C)[C@H](NC(C)=O)C(=O)N[C@@H](CCCCNC(=O)CCOCCOCCOCCNC(=O)CO[C@H]1CC[C@@]2(C)[C@H](CC[C@@H]3[C@@H]2C[C@@H](O)[C@]2(C)[C@@H](C4=CC(=O)OC4)CC[C@]32O)C1)C(=O)N1CCN(c2ccc3ncn(CC(=O)N[C@@H](CCCNC(=N)N)C(=O)N[C@@H](Cc4c[nH]cn4)C(=O)N[C@@H](Cc4ccc(O)cc4)C(=O)N[C@@H](CC(C)C)C(=O)N[C@@H](CC(N)=O)C(=O)N[C@@H](Cc4c[nH]c5ccccc45)C(=O)N[C@H](C(=O)N[C@H](C(=O)N[C@@H](CCCNC(=N)N)C(=O)N[C@@H](CCC(N)=O)C(=O)N(C)[C@@H](CCCNC(=N)N)C(=O)N[C@@H](Cc4ccc(O)cc4)C(N)=O)[C@@H](C)O)C(C)C)c(=O)c3c2)CC1 [<Dig> DIGmoPYY]
- effect on food intake [4]: strikingly reduced the food-intake
- Dig-peptide signal in serum (Western Blot, in words) ([2]; 5 min after administration, listed as <DIG>-DIG-moPYY): strong signals
- Dig-peptide signal in serum (Western Blot, in words) ([2]; later time points up to 24 hrs after administration, listed as <DIG>-DIG-moPYY): still detectable with good signals
- biological activity in vitro compared to PEG-peptide ([3]; cAMP assay): four fold better
